This is an account of results in patent US20110251281A1, “Composite Material Comprising High-Molecular-Weight Matrix and Low-Molecular-Weight Organic Compound and Process For Producing Same” (NATIONAL INSTITUTE FOR MATERIALS SCIENCE, priority 2008, published 2011).

The nature of the first data set: Am80 release from alkali-treated collagen composite materials in PBS, HPLC. Format: physicochemical. To be noted: PBS pH7.4, 37° C., in one day. On the procedure: The high-molecular-weight matrices containing the low-molecular-weight organic compound prepared in 2-1 mentioned above were dried in a desiccator and then heated in an oven at 80° C. for 10 min. These composite materials were used as samples for HPLC.
The thus produced high-molecular-weight matrices were each transferred in a 250 mL polyethylene container, and 200 mL of PBS (pH7.4) was added thereto. These were heated in an incubator at 37° C. The supernatant thereof was sampled in a time course manner, and 50 μL each was assayed by HPLC.
In the HPLC method, the Nacalai Tesque COSMOSIL Packed Column (Size: 4.6 I.D.×150 mm; Type: 5C18-AR II ATERS) was used as the column, and a 5% HOAc/CH3CN=35/65 (v/v) aqueous solution was used as the eluent. The flow rate was 1.00 mL/min, and the column temperature was 40.0° C. The detection was conducted by UV-visible spectroscopy.
The elusion amount was calculated based on a calibration curve that had been formed in advance. Three kinds of drug/PBS (pH7.4) solutions were prepared within a concentration range from 1.14 μM to 569 μM, and assayed by HPLC. The condition for this assay was the same as the above. […]
In the HPLC method, the Am80 elusion amount was calculated under the same conditions as for the above-mentioned method.
`CC1(C)CCC(C)(C)c2cc(NC(=O)c3ccc(C(=O)O)cc3)ccc21` [Am80, Tamibarotene]: the Am80 released is reported as 49%.

The next data set is described as follows: Composite formation of AlGltn/TSC matrix containing amino acid derivative after immersion in water. Format: physicochemical. To be noted: 100 mM amino acid derivative, 20 mM TSC, water at 4° C. for one day. How it is done: High-molecular-weight matrices formed from alkali-treated gelatin (AlGltn; derived from pig bone) and TSC (citric acid derivative), in which an amino acid derivative was contained, were prepared. By immersing in water, DMSO was replaced by water and the amino acid was precipitated. The behavior of the high-molecular-weight matrices after the precipitation was observed by each type and concentration of the amino acid.
400 μl of a DMSO solution containing 15 w/v % AlGltn and 10% lactic acid was added with an amino acid derivative to give 100 mM in a 2 ml tube. The mixture was agitated and degassed. 100 μl of a 10% lactic acid-containing DMSO was added with TSC at 20 mM (4.84 mg) and agitated. The solution made by addition of the amino acid derivative to the AlGltn/10% lactic acid-containing DMSO solution, agitation, and degasification, was added with the TSC/10% lactic acid-containing DMSO solution. The mixture was agitated for 30 seconds and then degassed for 30 seconds. After leaving still for one day, the resulting high-molecular-weight matrix was taken out and immersed in water at 4° C. for one day. The gel was taken out and its behavior was observed.
Consider `O=C(N[C@@H](Cc1ccccc1)C(=O)O)OCC1c2ccccc2-c2ccccc21` [FmocPheOH], for which the Composite formation result is recorded as “Present”.

Take `O=C(N[C@@H](Cc1c[nH]c2ccccc12)C(=O)O)OCC1c2ccccc2-c2ccccc21` [FmocTrpOH]: the Composite formation entry is listed as “Present”.

Take `CC[C@H](C)[C@H](NC(=O)OCC1c2ccccc2-c2ccccc21)C(=O)O` [FmocIleOH]: the Composite formation result is given as “Present”.

With `CC(C)(C)OC[C@H](NC(=O)OCC1c2ccccc2-c2ccccc21)C(=O)O` [FmocSer(tBu)OH], the Composite formation entry is “Present”.

In the case of `CC(=O)N[C@@H](Cc1ccc(O)cc1)C(N)=O` [AcTyrNH2], the Composite formation entry is reported as “Absent”.

`CC(=O)NC(Cc1c[nH]c2ccccc12)C(N)=O` (stereo not shown) [AcTrpNH2]: the Composite formation entry is given as “Absent”.
